Assay results from patent EP0073711A1, “Salts of 2-oxopentane-1,5-dicarboxylic acid, their preparation and pharmaceutical preparations containing these salts” (S.A. D[…] LEBAS (Société Anonyme), priority 1981, dated 1983).

Tests used:
[1] = Solubility in water at 20°C; type: physicochemical; conditions: lithium salt
[2] = Tests on the acid lithium salt (pharmacological and therapeutic properties); conditions: compared with the calcium salt
[3] = test system: système nerveux central de la souris; assay: Antagonism of the muscle-relaxant action of chlorpromazine (CPZ); type: in vivo
From the text: (§1) Activité du sel acide de calcium de l'acide 2-oxo-1,5- pentane dioîque sur le système nerveux central de la souris.
2. Antagonisme de l'action myorelaxante de la Chlorpromazine (CPZ)
La chlorpromazine induit une myorelaxation chez la souris. On constate une réduction de 37,5% pour une dose de 1g par kg et une réduction de 62,5% pour une dose de 2g par kg.

[4] = test system: système nerveux central de la souris; assay: Reduction of barbiturate narcosis; type: in vivo
From the text: as §1
4. Réduction de la narcose barbiturique
Les résultats de ce test se sont avérés positifs, chez la souris.

patient = assay: Clinical test: corrective effects on hypoxia (chamber, 12,5% O2); type: in vivo, homme; conditions: acute dose 12g per os, hypoxia at 12,5% O2
From the text: 1. Effets correctifs du sel acide de calcium de l'acide 2-oxo 1,5-pentane dioïgue sur l'hypoxie
Le test est réalisé sur le patient après le passage de celui-ci en caisson sous une hypoxie à 12,5% d'O2.

rats = assay: 30-day daily treatment toxicity; type: in vivo; conditions: daily treatment 30 days, doses up to 1g par kg et par jour
From the text: Un groupe de rats a été soumis à un traitement quotidien par le sel acide de calcium de l'acide 2-oxo-1,5- pentane dioique pendant une durée de 30 jours.

[5] = Pharmacokinetic study with C14-labelled salt; type: in vivo; conditions: rats, C14-labelled molecule
From the text: Dans cette étude, on a administré à des rats le sel conforme à l'invention dont la molécule a été marquée au C^14 radioactif.

[6] = test system: système nerveux central de la souris; assay: Catalepsy (prochlorpémazine-induced catatonia); type: in vivo; conditions: catalepsy test
From the text: as §1
Ce test a montré que le sel conforme à l'invention s'oppose à l'activité catatonique de la prochlorpémazine.

patients = assay: Clinical study: memory disorders, neurotic (anxiophobic) and psychasthenic states, versus placebo; type: in vivo, homme; conditions: sixty patients, 4g daily in two doses versus placebo
From the text: 2. Correction des troubles de la mémoire, des états névrotiques (anxiophobiques), et des états psychasténiques

[7] = test system: système nerveux central de la souris; assay: Rotarod test (rotating cylinder) after chlorpromazine; type: in vivo; conditions: from the dose of 0,5g par kg
From the text: as §1
3. Test du "rotarod" (cylindre tournant)
Dans ce test, la souris tourne sur un cylindre animé d'un mouvement rotatif, perd l'équilibre et tombe après administration de chlorpromazine (CPZ).

[8] = test system: système nerveux central de la souris; assay: Motor activity; type: in vivo
From the text: as §1
Ce test a montré que l'adminitration à des souris du sel conforme à l'invention, provoque une augmentation de leur activité motrice.

[9] = test system: système nerveux central de la souris; assay: Reduction of reserpine hypothermia; type: in vivo; conditions: doses between 0,5 and 1g par kg per os
From the text: as §1
5. Réduction de l'hypothermie réserpinique

[10] = test system: système nerveux central de la souris; assay: Reduction of reserpine ptosis; type: in vivo; conditions: souris, 0,5g par kg à 1g par kg per os, 1 hour after administration
From the text: as §1
1. Réduction du ptosis réserpinique

[11] = test system: système nerveux central de la souris; assay: Hole-board test; type: in vivo
From the text: as §1
6. Test de la planche à trous
Sur une planche percée de trous, la souris, parcourant la surface, explore les divers trous rencontrés.

| Substance | solubilité dans l'eau à 20°C [1] | propriétés pharmacologiques et thérapeutiques [2] | réduction (myorelaxation induite par la chlorpromazine) ([3]; dose 1g par kg) | réduction (myorelaxation induite par la chlorpromazine) ([3]; dose 2g par kg) | réduction de la narcose barbiturique [4] | effet correctif sur l'hypoxie (patient) | anomalie dans les constantes biologiques, hématologiques et les examens histologiques de différents viscères (rats) | passage à travers la barrière hématoencéphalique [5] | principal métabolite d'élimination [5] | conversion au niveau cérébral ([5]; in the brain) | activité catatonique de la prochlorpémazine [6] | efficacité à l'égard des troubles de la mémoire, états névrotiques (anxiophobiques) et états psychasténiques (patients) | antagonisme du CPZ (rotarod) [7] | activité motrice [8] | réduction de l'hypothermie réserpinique [9] | ptosis réserpinique [10] | exploration (planche à trous) sous méprobamate ([11]; after a single treatment, méprobamate-induced decrease of exploration) | activité exploratrice (planche à trous) ([11]; after three days of pretreatment, versus control animals) |
| --- | --- | --- | --- | --- | --- | --- | --- | --- | --- | --- | --- | --- | --- | --- | --- | --- | --- | --- |
| sel acide de lithium de l'acide 2-oxo-1,5- pentane dioïque [sel de lithium acide] | 5,5 % en poids | comparables à celles du sel de calcium | – | – | – | – | – | – | – | – | – | – | – | – | – | – | – | – |
| sel de calcium acide de l'acide 2-oxo-1,5- pentane dioïque | – | – | 37,5% | 62,5% | positifs | activateur efficace capable de contrebalancer l'effet d'une hypoxie | Aucune anomalie | passage de la molécule à travers la barrière hématoencéphalique | acide glutamique | conversion de celle-ci en acide gamma-aminobutyrique (GABA) | s'oppose | excellente efficacité | antagonisme du CPZ | augmentation | résultats positifs | réduit de façon significative | inhibition de la diminution d'exploration | augmentation notable |
